Results taken from patent US7642245B2, “Antibacterial compounds having a (pyrrole carboxamide)-(benzamide)-(imidazole carboxamide) motif” (Oscient Pharmaceuticals Corporation, priority 2002, dated 2010).

Experiments:
B. cereus ATCC 11778 = experiment: MIC, NCCLS broth microdilution; assay type: cell-based, Bacillus cereus; conditions: D = B. cereus ATCC 11778
From the text: (§1) In vitro biological activity data were collected for a variety of microorganisms, including Staphylococcus aureus (ATCC 27660, a methicillin resistant strain (MRSA); ATCC 13709, a methicillin sensitive strain (MSSA)), Enterococcus faecalis (ATCC 29212), Bacillus cereus (ATCC 11778), Streptococcus pneumoniae (ATCC 49619), Candida albicans (ATCC 38247), Escherichia coli (ATCC 25922), and Moraxella (now Branhamella) catarrhalis (ATCC 25238).
(§2) The minimal inhibition concentration (MIC) of these compounds was determined using the National Committee for Clinical Laboratory Standards (NCCLS) broth microdilution assay in microtiter plates, as set forth in: (1) the guidelines of the National Committee for Clinical Laboratory Standards (NCCLS) Document M7-A4 (NCCLS, 1997); (2) the guidelines of the National Committee for Clinical Laboratory Standards (NCCLS) Document M11-A4 (NCCLS, 1997); and (3) the guidelines and reference method of the National Committee for Clinical Laboratory Standards (NCCLS) Document M27-T (NCCLS, 1995). For antifungal assays, the method recommended in Murray, P R., 1995 Manual of Clinical Microbiology (ASM Press, Washington, DC.), was employed.

E. faecalis ATCC 29212 = experiment: MIC, NCCLS broth microdilution; assay type: cell-based, Enterococcus faecalis; conditions: C = E. faecalis ATCC 29212
From the text: as §1, §2

E. coli ATCC 25922 = experiment: MIC, NCCLS broth microdilution; assay type: cell-based, Escherichia coli; conditions: G = E. coli ATCC 25922
From the text: as §1, §2

[1] = system: M. catarrhalis (ATCC 25238); experiment: MIC, NCCLS broth microdilution; assay type: cell-based, Moraxella (now Branhamella) catarrhalis; conditions: H = M. catarrhalis (ATCC 25238)
From the text: as §1, §2

S. aureus ATCC 27660 = experiment: MIC, NCCLS broth microdilution; assay type: cell-based, Staphylococcus aureus; conditions: B = S. aureus ATCC 27660 (MRSA)
From the text: as §1, §2

S. aureus ATCC 13709 = experiment: MIC, NCCLS broth microdilution; assay type: cell-based, Staphylococcus aureus; conditions: A = S. aureus ATCC 13709 (MSSA)
From the text: as §1, §2

C. albicans ATCC 38247 = experiment: MIC, antifungal assay; assay type: cell-based, Candida albicans; conditions: F = C. albicans ATCC 38247
From the text: as §1, §2

S. pneumoniae ATCC 49619 = experiment: MIC, NCCLS broth microdilution; assay type: cell-based, Streptococcus pneumoniae; conditions: E = S. pneumoniae ATCC 49619
From the text: as §1, §2

| Minimum Inhibitory Concentration (MIC) (B. cereus ATCC 11778) | Minimum Inhibitory Concentration (MIC) (E. faecalis ATCC 29212) | Minimum Inhibitory Concentration (MIC) (E. coli ATCC 25922) | Minimum Inhibitory Concentration (MIC) [1] | Minimum Inhibitory Concentration (MIC) (S. aureus ATCC 27660) | Minimum Inhibitory Concentration (MIC) (S. aureus ATCC 13709) | Minimum Inhibitory Concentration (MIC) (C. albicans ATCC 38247) | Minimum Inhibitory Concentration (MIC) (S. pneumoniae ATCC 49619) | SMILES |
| --- | --- | --- | --- | --- | --- | --- | --- | --- |
| +++ (MIC ≦ 4 μg/mL) | +++ (MIC ≦ 4 μg/mL) | >32 µg/mL | +++ (MIC ≦ 4 μg/mL) | +++ (MIC ≦ 4 μg/mL) | +++ (MIC ≦ 4 μg/mL) | >32 µg/mL | +++ (MIC ≦ 4 μg/mL) | Cn1cc(NC(=O)c2cc3ccccc3cn2)cc1C(=O)Nc1ccc(C(=O)Nc2cn(C)c(C(=O)NCCN3CCCC(O)C3)n2)cc1 (centres unmarked) [Compound A-72] |
| >32 µg/mL | + (12 ≦ MIC ≦ 32 μg/mL) | >32 µg/mL | >32 µg/mL | +++ (MIC ≦ 4 μg/mL) | +++ (MIC ≦ 4 μg/mL) | >32 µg/mL | +++ (MIC ≦ 4 μg/mL) | Cn1cc(NC(=O)c2cc3ccccc3cn2)cc1C(=O)Nc1ccc(C(=O)Nc2cn(C)c(C(=O)NCCNC(CO)(CO)CO)n2)cc1 [Compound A-49] |
| +++ (MIC ≦ 4 μg/mL) | +++ (MIC ≦ 4 μg/mL) | >32 µg/mL | +++ (MIC ≦ 4 μg/mL) | +++ (MIC ≦ 4 μg/mL) | +++ (MIC ≦ 4 μg/mL) | >32 µg/mL | +++ (MIC ≦ 4 μg/mL) | CCN(CC)CCNC(=O)c1nc(NC(=O)c2ccc(NC(=O)c3cc(NC(=O)c4cc5ccccc5cn4)cn3C)cc2)cn1C [Compound A-25] |
| +++ (MIC ≦ 4 μg/mL) | +++ (MIC ≦ 4 μg/mL) | >32 µg/mL | +++ (MIC ≦ 4 μg/mL) | +++ (MIC ≦ 4 μg/mL) | +++ (MIC ≦ 4 μg/mL) | >32 µg/mL | +++ (MIC ≦ 4 μg/mL) | C[C@@H]1CN(CCNC(=O)c2nc(NC(=O)c3ccc(NC(=O)c4cc(NC(=O)c5cc6ccccc6cn5)cn4C)cc3)cn2C)C[C@H](C)O1 [Compound A-51] |
| +++ (MIC ≦ 4 μg/mL) | +++ (MIC ≦ 4 μg/mL) | +++ (MIC ≦ 4 μg/mL) | +++ (MIC ≦ 4 μg/mL) | +++ (MIC ≦ 4 μg/mL) | +++ (MIC ≦ 4 μg/mL) | >32 µg/mL | +++ (MIC ≦ 4 μg/mL) | Cn1cc(NC(=O)c2cc3ccccc3cn2)cc1C(=O)Nc1ccc(C(=O)Nc2cn(C)c(C(=O)NCCN3CCCC3)n2)cc1 [Compound A-16] |
| +++ (MIC ≦ 4 μg/mL) | +++ (MIC ≦ 4 μg/mL) | +++ (MIC ≦ 4 μg/mL) | +++ (MIC ≦ 4 μg/mL) | +++ (MIC ≦ 4 μg/mL) | +++ (MIC ≦ 4 μg/mL) | >32 µg/mL | +++ (MIC ≦ 4 μg/mL) | Cn1cc(NC(=O)c2cc3ccccc3cn2)cc1C(=O)Nc1ccc(C(=O)Nc2cn(C)c(C(=O)NCCN3CCC(O)C3)n2)cc1 (centres unmarked) [Compound A-70] |
| +++ (MIC ≦ 4 μg/mL) | +++ (MIC ≦ 4 μg/mL) | >32 µg/mL | + (12 ≦ MIC ≦ 32 μg/mL) | +++ (MIC ≦ 4 μg/mL) | +++ (MIC ≦ 4 μg/mL) | >32 µg/mL | +++ (MIC ≦ 4 μg/mL) | Cn1cc(NC(=O)c2cc3c([N+](=O)[O-])cccc3cn2)cc1C(=O)Nc1ccc(C(=O)Nc2cn(C)c(C(=O)NCCN3CCC(O)CC3)n2)cc1 [Compound A-7] |
| +++ (MIC ≦ 4 μg/mL) | +++ (MIC ≦ 4 μg/mL) | >32 µg/mL | +++ (MIC ≦ 4 μg/mL) | +++ (MIC ≦ 4 μg/mL) | +++ (MIC ≦ 4 μg/mL) | >32 µg/mL | +++ (MIC ≦ 4 μg/mL) | Cn1cc(NC(=O)c2cc3ccccc3cn2)cc1C(=O)Nc1ccc(C(=O)Nc2cn(C)c(C(=O)NCCN3CCN(CC#N)CC3)n2)cc1 [Compound A-58] |
| +++ (MIC ≦ 4 μg/mL) | +++ (MIC ≦ 4 μg/mL) | >32 µg/mL | + (12 ≦ MIC ≦ 32 μg/mL) | +++ (MIC ≦ 4 μg/mL) | +++ (MIC ≦ 4 μg/mL) | >32 µg/mL | +++ (MIC ≦ 4 μg/mL) | Cn1cc(NC(=O)c2cc3ccccc3cn2)cc1C(=O)Nc1ccc(C(=O)Nc2cn(C)c(C(=O)NCCNCCO)n2)cc1 [Compound A-45] |
| +++ (MIC ≦ 4 μg/mL) | +++ (MIC ≦ 4 μg/mL) | >32 µg/mL | >32 µg/mL | +++ (MIC ≦ 4 μg/mL) | +++ (MIC ≦ 4 μg/mL) | >32 µg/mL | +++ (MIC ≦ 4 μg/mL) | Cn1cc(NC(=O)c2nccc3ccccc23)cc1C(=O)Nc1ccc(C(=O)Nc2cn(C)c(C(=O)NCCN3CCC(O)CC3)n2)cc1 [Compound A-5] |
| +++ (MIC ≦ 4 μg/mL) | +++ (MIC ≦ 4 μg/mL) | >32 µg/mL | +++ (MIC ≦ 4 μg/mL) | +++ (MIC ≦ 4 μg/mL) | +++ (MIC ≦ 4 μg/mL) | ++ (4 < MIC < 12 μg/mL) | +++ (MIC ≦ 4 μg/mL) | Cn1cc(NC(=O)c2cc3ccccc3cn2)cc1C(=O)Nc1ccc(C(=O)Nc2cn(C)c(C(=O)NCCN3CCN(C(=O)CN)CC3)n2)cc1 [Compound A-65] |
| +++ (MIC ≦ 4 μg/mL) | +++ (MIC ≦ 4 μg/mL) | >32 µg/mL | +++ (MIC ≦ 4 μg/mL) | +++ (MIC ≦ 4 μg/mL) | +++ (MIC ≦ 4 μg/mL) | >32 µg/mL | +++ (MIC ≦ 4 μg/mL) | Cn1cc(NC(=O)c2cc3ccccc3cn2)cc1C(=O)Nc1ccc(C(=O)Nc2cn(C)c(C(=O)NCCN3CCSCC3)n2)cc1 [Compound A-18] |
| +++ (MIC ≦ 4 μg/mL) | +++ (MIC ≦ 4 μg/mL) | >32 µg/mL | + (12 ≦ MIC ≦ 32 μg/mL) | +++ (MIC ≦ 4 μg/mL) | +++ (MIC ≦ 4 μg/mL) | >32 µg/mL | +++ (MIC ≦ 4 μg/mL) | Cn1cc(NC(=O)c2cccc(F)n2)cc1C(=O)Nc1ccc(C(=O)Nc2cn(C)c(C(=O)NCCN3CCC(O)CC3)n2)cc1 [Compound A-2] |
